The text below walks through data of patent US12331046B2, “CTPS1 inhibitors and uses thereof” (Nimbus Clotho, Inc., priority 2020, dated 2025).

The target in the experiment is human CTPS1 (Homo sapiens (Human), UniProt P17812). Description: hCTPS1 biochemical assay (ADP-Glo). Particulars: hCTPS1 25 nM, ATP 120 uM, UTP 160 uM, GTP 60 uM, L-Glutamine 100 uM, 25 degrees C.
Sequence of human CTPS1 (P17812 whole entry): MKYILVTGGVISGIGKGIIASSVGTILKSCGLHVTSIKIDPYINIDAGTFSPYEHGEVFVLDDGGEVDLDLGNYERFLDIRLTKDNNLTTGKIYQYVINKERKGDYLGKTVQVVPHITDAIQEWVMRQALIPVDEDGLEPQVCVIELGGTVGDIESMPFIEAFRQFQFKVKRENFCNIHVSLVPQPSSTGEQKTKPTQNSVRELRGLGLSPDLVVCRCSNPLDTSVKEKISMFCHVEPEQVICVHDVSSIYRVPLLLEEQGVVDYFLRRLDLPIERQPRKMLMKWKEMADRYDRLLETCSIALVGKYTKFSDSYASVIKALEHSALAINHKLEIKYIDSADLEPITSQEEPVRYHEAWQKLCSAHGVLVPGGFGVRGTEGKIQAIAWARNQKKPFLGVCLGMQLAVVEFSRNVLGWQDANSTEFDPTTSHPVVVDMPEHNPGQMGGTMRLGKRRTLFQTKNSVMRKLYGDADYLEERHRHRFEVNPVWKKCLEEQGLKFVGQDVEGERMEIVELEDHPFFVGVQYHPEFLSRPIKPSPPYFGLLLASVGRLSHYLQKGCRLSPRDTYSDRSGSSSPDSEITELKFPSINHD
`CCOc1cncc(-c2ccc(C(=O)NCc3nccc(NS(=O)(=O)C4CC4)c3OC)c(F)c2)n1` [I-257, N-[(4-cyclopropanesulfonamido-3-methoxypyridin-2-yl)methyl]-4-(6-ethoxypyrazin-2-yl)-2-fluorobenzamide]: the IC50 is < 100 nM.

With `CCOc1cncc(-c2ccc(NC(=O)[C@@](F)(CC)c3cc(NS(=O)(=O)C4CC4)ccn3)nc2)n1` [I-258, (R)-2-(4-(cyclopropanesulfonamido)pyridin-2-yl)-N-(5-(6-ethoxypyrazin-2-yl)pyridin-2-yl)-2-fluorobutanamide], the IC50 was < 100 nM.

For the compound `CCOc1cncc(-c2ccc(NC(=O)[C@](F)(CC)c3cc(NS(=O)(=O)C4CC4)ccn3)nc2)n1` [I-259, (S)-2-(4-(cyclopropanesulfonamido)pyridin-2-yl)-N-(5-(6-ethoxypyrazin-2-yl)pyridin-2-yl)-2-fluorobutanamide], the IC50 was < 100 nM. To `O=C(NC1(c2csc(NS(=O)(=O)C3CC3)n2)CC1)c1ccc(-c2cnc3n2CCCC3)cc1` [I-260, N-[1-(2-cyclopropanesulfonamido-1,3-thiazol-4-yl)cyclopropyl]-4-[5H, 6H, 7H, 8H-imidazo[1,2-a]pyridin-3-yl]benzamide] belongs ≥ 1000 nM; to `Cc1c(-c2ccc(C(=O)NC3(c4csc(NS(=O)(=O)C5CC5)n4)CC3)cc2)cnn1C` [I-261, N-[1-(2-cyclopropanesulfonamido-1,3-thiazol-4-yl)cyclopropyl]-4-(1,5-dimethylpyrazol-4-yl)benzamide], ≥ 1000 nM.

Take `CCOc1cncc(-c2cnc(C(=O)NC(C)(C)c3cccc(NS(=O)(=O)C(F)F)c3)s2)n1` [I-262, N-{2-[3-(difluoromethanesulfonamido)phenyl]propan-2-yl}-5-(6-ethoxypyrazin-2-yl)-1,3-thiazole-2-carboxamide]: the IC50 was < 100 nM. With `C[C@H]1Cc2nc(C(=O)NCc3cc(NS(=O)(=O)C4CC4)ccn3)cnc2N(C2CCC2)C1` [I-263, (S)-5-cyclobutyl-N-((4-(cyclopropanesulfonamido)pyridin-2-yl)methyl)-7-methyl-5,6,7,8-tetrahydropyrido[2,3-b]pyrazine-2-carboxamide], the IC50 is ≥ 1000 nM. In the case of `C[C@@H]1Cc2nc(C(=O)NCc3cc(NS(=O)(=O)C4CC4)ccn3)cnc2N(C2CCC2)C1` [I-264, (R)-5-cyclobutyl-N-((4-(cyclopropanesulfonamido)pyridin-2-yl)methyl)-7-methyl-5,6,7,8-tetrahydropyrido[2,3-b]pyrazine-2-carboxamide], the IC50 was ≥ 1000 nM.

Regarding `CCOc1cncc(-c2ccc(C(=O)NC3(c4cccc(NS(=O)(=O)C(F)F)c4)CC3)nc2)n1` [I-265, N-[1-[3-(difluoromethanesulfonamido)phenyl]cyclopropyl]-5-(6-ethoxypyrazin-2-yl)pyridine-2-carboxamide], the IC50 is < 100 nM. Turning to `CCOc1cncc(-c2ccc(C(=O)NC3(c4cccc(NS(=O)(=O)C(F)F)c4)CC3)cc2)n1` [I-266, N-(1-(3-((difluoromethyl)sulfonamido)phenyl)cyclopropyl)-4-(6-ethoxypyrazin-2-yl)benzamide], the IC50 is < 100 nM. For `CCOc1cncc(-c2ccc(C(=O)NC3(c4cccc(NS(=O)(=O)C(F)F)c4)CC3)c(F)c2)n1` [I-267, N-[1-[3-(difluoromethanesulfonamido)phenyl]cyclopropyl]-4-(6-ethoxypyrazin-2-yl)-2-fluorobenzamide] the value was < 100 nM; for `CCOc1cncc(-c2ccc(C(=O)NC3(c4cccc(NS(=O)(=O)C(F)F)c4)CC3)s2)n1` [I-269, N-(1-(3-((difluoromethyl)sulfonamido)phenyl)cyclopropyl)-5-(6-ethoxypyrazin-2-yl)thiophene-2-carboxamide], < 100 nM; for `CCOc1cncc(-c2cnc(C(=O)N3CCC[C@@H]3c3ccnc(NS(=O)(=O)C4CC4)n3)s2)n1` [I-270, N-[4-[(2R)-1-[5-(6-ethoxypyrazin-2-yl)-1,3-thiazole-2-carbonyl]pyrrolidin-2-yl]pyrimidin-2-yl]cyclopropanesulfonamide], 100 to 1000 nM.

As usually defined, the IC50 is the midpoint of a concentration-inhibition curve. A high value points to lower potency.
